Measurements taken from paper PMC3598705, “Evaluation of Toxicity and Biodegradability of Cholinium Amino Acids Ionic Liquids” (PLoS ONE, 2013).

What was measured:
[1] = molecular target: T1, AChE type VI-S (from the electric eel) (Electrophorus electricus, UniProt O42275); experiment: AChE inhibition assay (colorimetric, DTNB reduction); type: biochemical; settings: DTNB 0.5 mM, AChE 0.05 U mL^−1, acetylthiocholine iodide 0.5 mM, 37 °C, phosphate buffer pH 8.0; mean ± SD; read-out: EC50±SD (toxicity toward AChE)
T1 construct: purchased Sigma–Aldrich, USA type VI-S (catalogue number not given)
T1 sequence (O42275 24-633): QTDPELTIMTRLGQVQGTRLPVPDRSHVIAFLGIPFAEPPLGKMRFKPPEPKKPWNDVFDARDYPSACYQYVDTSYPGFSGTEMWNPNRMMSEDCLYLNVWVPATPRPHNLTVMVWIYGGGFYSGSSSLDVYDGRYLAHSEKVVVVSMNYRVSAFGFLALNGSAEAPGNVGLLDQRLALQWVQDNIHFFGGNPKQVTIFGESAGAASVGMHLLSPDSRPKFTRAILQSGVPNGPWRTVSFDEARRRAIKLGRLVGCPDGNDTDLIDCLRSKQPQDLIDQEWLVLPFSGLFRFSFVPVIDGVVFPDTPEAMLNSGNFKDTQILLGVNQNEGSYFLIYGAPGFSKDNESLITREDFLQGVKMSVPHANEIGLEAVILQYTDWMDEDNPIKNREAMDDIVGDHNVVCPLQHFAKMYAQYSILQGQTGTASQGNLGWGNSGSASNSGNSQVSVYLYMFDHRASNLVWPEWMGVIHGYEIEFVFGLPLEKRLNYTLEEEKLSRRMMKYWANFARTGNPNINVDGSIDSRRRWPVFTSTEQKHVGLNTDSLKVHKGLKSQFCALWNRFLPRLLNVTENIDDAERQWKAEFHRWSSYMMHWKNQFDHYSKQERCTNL
Description: A colorimetric assay based on reduction of DTNB was used to measure AChE inhibition as described previously, [24], in the presence of a phosphate buffer system in order to eliminate the effects of pH changes on enzyme activity. Briefly, IL solutions were prepared with 0.2 M phosphate buffer (pH 8.0) in 96-well microtiter plates. The enzyme (0.2 U mL^−1, plus 0.25 mg mL^−1 bovine serum albumin in the same phosphate buffer), and DTNB (2 mM, plus 0.185 mg mL^−1 NaHCO3 in the same phosphate buffer) were added to each well and kept at 37 °C for 5 min, and then the reaction was initiated by adding acetylthiocholine iodide (2 mM in the same phosphate buffer). In the experimental reactions, the final concentrations of DTNB, acetylthiocholine iodide and AChE were 0.5 mM, 0.5 mM and 0.05 U mL^−1, respectively. Except where stated otherwise, the concentration range used to calculate EC50 of the [Ch][AA] ILs was 0–50 mM. However, for strongly alkaline [Ch][AA] ILs such as [Ch][Lys], the maximum concentration used was 20 mM in order to avoid changes in enzyme activity due to pH changes that would be caused if the IL exceeded the buffering capacity of the phosphate buffer. Acidic amino acid-derived ILs ([Ch][Asp] and [Ch][Glu]) were used up to 80 mM. The control compounds cholinium chloride ([Ch][Cl]), [Bmim][BF4] and acetone were used at concentration ranges of 0–80 mM, 0–50 mM and 10 mM–2.5 M, respectively. Control experiments without enzyme were carried out under otherwise identical conditions. Reduction of DTNB was monitored at 405 nm and at 10 second intervals in a microplate reader (Wallac 1420 VICTOR3, PerkinElmer, Singapore) over a period of 5 min. Enzyme activity was expressed as ΔOD min^−1 obtained via linear regression analysis. All assays were performed at least in triplicate.
All data were analyzed by One-Way analysis of variance using SPSS 11.5 (SPSS Inc., USA). EC50 values are presented as mean ± standard deviation (SD) from at least three repeats, and confidence intervals (α = 0.05) of EC50 are also presented. The One-Way ANOVA was used to judge if the difference between the different ILs groups was significant. When the p value was<0.05, the difference was considered to be significant.

E. coli ATCC 8739 = experiment: Antimicrobial activity, tube dilution method; type: cell-based, Escherichia coli; settings: four repeated experiments; for MIC: 24 h at 37 °C; for MBC: kills 99.9% or more
Description: (§1) Antimicrobial activity was measured via the tube dilution method as described previously. Briefly, E. coli, S. aureus, S. enteritidis and L. monocytogenes were cultured in Mueller-Hinton broth for 24 h at 37 °C. A microorganism suspension of 10^6 cfu mL^−1 (cfu, colony forming units) was prepared from each culture. IL solutions (31.3–1500 mM) were prepared with sterilized Mueller-Hinton broth, and then were sterilized by filtration (0.45 µm pore-diameter membrane). The various permutations of microorganism suspension (50 µL) and IL solution (50 µL) were mixed in 96-well microtiter plate. Growth of the microorganisms was determined visually after incubation for 24 h at 37 °C. Controls were conducted under the same conditions: negative controls without microorganisms and positive controls without ILs. The lowest concentration at which there was no visible growth (turbidity) was taken as the minimal inhibitory concentration (MIC). Samples of 20 µL from each well were spread onto Mueller-Hinton agar medium with inactivates (0.3% lecithin, 3% polysorbate 80 and 0.1% L-cysteine) and incubated for 48 h at 37 °C. The lowest concentration of the IL that killed 99.9% or more of the test bacterium was taken as the minimum biocidal concentration (MBC).

[2] = system: S. enteritidis ATCC 14128; experiment: Antimicrobial activity, tube dilution method; type: cell-based, Salmonella enteritidis; settings: four repeated experiments; for MIC: 24 h at 37 °C; for MBC: kills 99.9% or more
Description: as §1

[3] = system: L. monocytogenes ATCC 19115; experiment: Antimicrobial activity, tube dilution method; type: cell-based, Listeria monocytogenes; settings: four repeated experiments; for MIC: 24 h at 37 °C; for MBC: kills 99.9% or more
Description: as §1

S. aureus ATCC 29213 = experiment: Antimicrobial activity, tube dilution method; type: cell-based, Staphylococcus aureus; settings: four repeated experiments; for MIC: 24 h at 37 °C; for MBC: kills 99.9% or more
Description: as §1

| SMILES | EC50 [1] | MIC (E. coli ATCC 8739) | MBC (E. coli ATCC 8739) | MIC [2] | MBC [2] | MIC [3] | MBC [3] | MIC (S. aureus ATCC 29213) | MBC (S. aureus ATCC 29213) |
| --- | --- | --- | --- | --- | --- | --- | --- | --- | --- |
| C[N+](C)(C)CCO.[Cl-] [[Ch][Cl], cholinium chloride, reference compound] | 3.16 ± 0.09 mM | >750 mM | >750 mM | >750 mM | >750 mM | >750 mM | >750 mM | >750 mM | >750 mM |
| C[N+](C)(C)CCO.C[N+](C)(C)CCO.N[C@@H](CC(=O)[O-])C(=O)[O-] [[Ch][Asp]] | 3.81 ± 0.09 mM | 500 mM | 750 mM | 125 mM | 188 mM | 500 mM | 750 mM | 750 mM | 750 mM |
